# Test results from patent US10294202B2, “Pyrrolidinones as herbicides” (FMC Corporation, priority 2013, dated 2019).
# Key:
# wheat = assay: Test A pre-/postemergence herbicide test; assay type: in vivo, Triticum aestivum
# Summary of the method: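 Visual injury ratings, 0 = no effect, 100 = complete control, taken ~10 days after treatment against untreated greenhouse controls. Preemergence: directed soil spray onto seeded loam/sand pots. Postemergence: spray onto plants at one- to two-leaf stage, 2–10 cm tall.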
# rice = assay: Test B flooded paddy test; assay type: in vivo, Oryza sativa; details: Flood, scale of 0 to 100 where 0 is no effect and 100 is complete control
# Summary of the method: (§1)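 In-water application to pots flooded 3 cm deep, plants at 2-leaf stage. Held in greenhouse 13–15 days at constant flood depth. Scored 0–100 by eye against controls.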
# sedge, umbrella = assay: Test B flooded paddy test; assay type: in vivo, Cyperus difformis; details: Flood, scale of 0 to 100 where 0 is no effect and 100 is complete control
# Summary of the method: as §1
# ducksalad = assay: Test B flooded paddy test; assay type: in vivo, Heteranthera limosa; details: Flood, scale of 0 to 100 where 0 is no effect and 100 is complete control
# Summary of the method: as §1
# barnyardgrass = assay: Test B flooded paddy test; assay type: in vivo, Echinochloa crus-galli; details: Flood, scale of 0 to 100 where 0 is no effect and 100 is complete control
# Summary of the method: as §1
# ryegrass, Italian = assay: Test C pre-/postemergence herbicide test; assay type: in vivo, Lolium multiflorum
# Summary of the method: (§2)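 Pre- and postemergence greenhouse screen. Preemergence treatment went onto freshly planted seeds in loam–sand soil; postemergence treatment went onto plants 2 to 18 cm tall at the 1- to 4-leaf stage in sphagnum peat/vermiculite medium. Scoring at 13 to 15 days used a 0–100 control scale.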
# corn = assay: Test C pre-/postemergence herbicide test; assay type: in vivo, Zea mays
# Summary of the method: as §2
# johnsongrass = assay: Test C pre-/postemergence herbicide test; assay type: in vivo, Sorghum halepense
# Summary of the method: as §2
# nutsedge, yellow = assay: Test C pre-/postemergence herbicide test; assay type: in vivo, Cyperus esculentus
# Summary of the method: as §2
# pigweed = assay: Test C pre-/postemergence herbicide test; assay type: in vivo, Amaranthus retroflexus
# Summary of the method: as §2
# ragweed = assay: Test C pre-/postemergence herbicide test; assay type: in vivo, Ambrosia elatior
# Summary of the method: as §2
# soybean = assay: Test C pre-/postemergence herbicide test; assay type: in vivo, Glycine max
# Summary of the method: as §2
# oilseed rape = assay: Test C pre-/postemergence herbicide test; assay type: in vivo, Brassica napus
# Summary of the method: as §2
# [1] = Postemergence, 500 g ai/ha, 0 to 100 scale (0 no effect, 100 complete control)
# [2] = Preemergence, 31 g ai/ha, scale 0 to 100, 0 is no effect and 100 is complete control
# [3] = Preemergence, 62 g ai/ha, scale 0 to 100 (0 no effect, 100 complete control)
# [4] = Preemergence, 125 g ai/ha, scale 0 to 100 (0 no effect, 100 complete control)
# [5] = Postemergence, 31 g ai/ha, scale 0 to 100 (0 no effect, 100 complete control)
# [6] = Postemergence, 62 g ai/ha, scale 0 (no effect) to 100 (complete control)
# [7] = Postemergence, 125 g ai/ha, scale 0 to 100 (0 no effect, 100 complete control)
# [8] = Postemergence, 250 g ai/ha, scale 0 to 100 (0 no effect, 100 complete control)
# [9] = Preemergence, 125 g ai/ha, scale 0 to 100
compound,measurement,setting,value
O=C1NCC(c2cccc(C(F)(F)F)c2)C1C(=O)Nc1cccc(F)c1F (centres unmarked) [Compound 241],"Plant response rating, Wheat","wheat; Postemergence, 125 g ai/ha, 0 to 100 scale, 0 is no effect, 100 is complete control",30
same,"Plant response rating, Wheat",wheat; [1],70
same,"Plant response rating, Wheat","wheat; Preemergence, 125 g ai/ha, 0 to 100 scale where 0 is no effect and 100 is complete control",20
same,"Plant response rating, Wheat","wheat; preemergence, 500 g ai/ha, 0 to 100 scale, 0 is no effect and 100 is complete control",30
same,"Plant response rating, Rice",rice; 250 g ai/ha,0
same,"Plant response rating, Rice",rice; 1000 g ai/ha,10
same,"Plant response rating, Sedge, Umbrella","sedge, umbrella; 250 g ai/ha",0
same,"Plant response rating, Sedge, Umbrella","sedge, umbrella; 1000 g ai/ha",20
same,"Plant response rating, Ducksalad",ducksalad; 250 g ai/ha,100
same,"Plant response rating, Ducksalad",ducksalad; 1000 g ai/ha,100
same,"Plant response rating, Barnyardgrass",barnyardgrass; 250 g ai/ha,55
same,"Plant response rating, Barnyardgrass",barnyardgrass; 1000 g ai/ha,75
same,"Ryegrass, Italian plant response rating","ryegrass, Italian; [2]",20
same,"Ryegrass, Italian plant response rating","ryegrass, Italian; [3]",20
same,"Plant response rating, Ryegrass, Italian","ryegrass, Italian; [4]",30
same,"Plant response rating (scale of 0 to 100), Ryegrass, Italian","ryegrass, Italian; Preemergence, 250 g ai/ha",55
same,Corn plant response rating,corn; [2],85
same,Corn plant response rating,corn; [3],65
same,"Plant response rating, Corn",corn; [4],80
same,"Plant response rating (scale of 0 to 100), Corn","corn; Preemergence, 250 g ai/ha",90
same,Johnsongrass plant response rating,johnsongrass; [2],85
same,Johnsongrass plant response rating,johnsongrass; [3],80
same,"Plant response rating, Johnsongrass",johnsongrass; [4],85
same,"Plant response rating (scale of 0 to 100), Johnsongrass","johnsongrass; Preemergence, 250 g ai/ha",90
same,"Nutsedge, Yellow plant response rating","nutsedge, yellow; [2]",0
same,"Nutsedge, Yellow plant response rating","nutsedge, yellow; [3]",0
same,"Plant response rating, Nutsedge, Yellow","nutsedge, yellow; [4]",0
same,"Plant response rating (scale of 0 to 100), Nutsedge, Yellow","nutsedge, yellow; Preemergence, 250 g ai/ha",0
same,Pigweed plant response rating,pigweed; [2],0
same,Pigweed plant response rating,pigweed; [3],0
same,"Plant response rating, Pigweed",pigweed; [4],25
same,"Plant response rating (scale of 0 to 100), Pigweed","pigweed; Preemergence, 250 g ai/ha",70
same,Ragweed plant response rating,ragweed; [2],0
same,Ragweed plant response rating,ragweed; [3],25
same,"Plant response rating, Ragweed",ragweed; [4],30
same,"Plant response rating (scale of 0 to 100), Ragweed","ragweed; Preemergence, 250 g ai/ha",70
same,Soybean plant response rating,soybean; [2],0
same,Soybean plant response rating,soybean; [3],0
same,"Plant response rating, Soybean",soybean; [4],0
same,"Plant response rating (scale of 0 to 100), Soybean","soybean; Preemergence, 250 g ai/ha",0
same,Oilseed Rape plant response rating,oilseed rape; [2],0
same,Oilseed Rape plant response rating,oilseed rape; [3],0
same,"Plant response rating, Oilseed Rape",oilseed rape; [4],70
same,"Plant response rating (scale of 0 to 100), Oilseed Rape","oilseed rape; Preemergence, 250 g ai/ha",85
O=C1NCC(c2cccc(OC(F)F)c2)C1C(=O)Nc1ccc(F)c(F)c1F (centres unmarked) [Compound 325],"Plant response rating, Wheat","wheat; Postemergence, 125 g ai/ha, visual rating on 0 to 100 scale (0 no effect, 100 complete control), approx. 10 days",60
same,"Plant response rating, Wheat",wheat; [1],80
same,"Plant response rating, Rice",rice; 500 g ai/ha,20
same,"Plant response rating, Sedge, Umbrella","sedge, umbrella; 500 g ai/ha",40
same,"Plant response rating, Ducksalad",ducksalad; 500 g ai/ha,100
same,"Plant response rating, Barnyardgrass",barnyardgrass; 500 g ai/ha,70
same,"Plant response rating, Ryegrass, Italian","ryegrass, Italian; [5]",0
same,"Plant response rating, Ryegrass, Italian","ryegrass, Italian; [6]",0
same,"Plant response rating, Ryegrass, Italian","ryegrass, Italian; [7]",0
same,"Plant response rating, Ryegrass, Italian","ryegrass, Italian; [8]",30
same,"Ryegrass, Italian plant response rating","ryegrass, Italian; [3]",40
same,"Plant response rating, Ryegrass, Italian","ryegrass, Italian; [9]",50
same,"Plant response rating, Corn",corn; [5],0
same,"Plant response rating, Corn",corn; [6],0
same,"Plant response rating, Corn",corn; [7],10
same,"Plant response rating, Corn",corn; [8],35
same,Corn plant response rating,corn; [2],10
same,Corn plant response rating,corn; [3],60
same,"Plant response rating, Corn",corn; [9],70
same,"Plant response rating (scale of 0 to 100), Corn","corn; Preemergence, 250 g ai/ha",85
same,"Plant response rating, Johnsongrass",johnsongrass; [5],0
same,"Plant response rating, Johnsongrass",johnsongrass; [6],0
same,"Plant response rating, Johnsongrass",johnsongrass; [7],0
same,"Plant response rating, Johnsongrass",johnsongrass; [8],0
same,Johnsongrass plant response rating,johnsongrass; [2],20
same,Johnsongrass plant response rating,johnsongrass; [3],35
same,"Plant response rating, Johnsongrass",johnsongrass; [9],75
same,"Plant response rating (scale of 0 to 100), Johnsongrass","johnsongrass; Preemergence, 250 g ai/ha",75
same,"Plant response rating, Nutsedge, Yellow","nutsedge, yellow; [5]",0
same,"Plant response rating, Nutsedge, Yellow","nutsedge, yellow; [6]",0
same,"Plant response rating, Nutsedge, Yellow","nutsedge, yellow; [7]",0
same,"Plant response rating, Nutsedge, Yellow","nutsedge, yellow; [8]",0
same,"Nutsedge, Yellow plant response rating","nutsedge, yellow; [2]",0
same,"Nutsedge, Yellow plant response rating","nutsedge, yellow; [3]",0
same,"Plant response rating, Nutsedge, Yellow","nutsedge, yellow; [9]",0
same,"Plant response rating (scale of 0 to 100), Nutsedge, Yellow","nutsedge, yellow; Preemergence, 250 g ai/ha",0
same,"Plant response rating, Pigweed",pigweed; [5],40
same,"Plant response rating, Pigweed",pigweed; [6],55
same,"Plant response rating, Pigweed",pigweed; [7],50
same,"Plant response rating, Pigweed",pigweed; [8],65
same,Pigweed plant response rating,pigweed; [2],65
same,Pigweed plant response rating,pigweed; [3],65
same,"Plant response rating, Pigweed",pigweed; [9],75
same,"Plant response rating, Ragweed",ragweed; [5],10
same,"Plant response rating, Ragweed",ragweed; [6],10
same,"Plant response rating, Ragweed",ragweed; [7],25
same,"Plant response rating, Ragweed",ragweed; [8],35
same,Ragweed plant response rating,ragweed; [3],60
same,"Plant response rating, Ragweed",ragweed; [9],80
same,"Plant response rating, Soybean",soybean; [5],0
same,"Plant response rating, Soybean",soybean; [6],0
same,"Plant response rating, Soybean",soybean; [7],0
same,"Plant response rating, Soybean",soybean; [8],0
same,Soybean plant response rating,soybean; [3],0
same,"Plant response rating, Soybean",soybean; [9],0
same,"Plant response rating, Oilseed Rape",oilseed rape; [5],0
same,"Plant response rating, Oilseed Rape",oilseed rape; [6],0
same,"Plant response rating, Oilseed Rape",oilseed rape; [7],50
same,"Plant response rating, Oilseed Rape",oilseed rape; [8],60
same,Oilseed Rape plant response rating,oilseed rape; [2],0
same,Oilseed Rape plant response rating,oilseed rape; [3],65
same,"Plant response rating, Oilseed Rape",oilseed rape; [9],85
same,"Plant response rating (scale of 0 to 100), Oilseed Rape","oilseed rape; Preemergence, 250 g ai/ha",90
